Assay results taken from paper PMC12126180 (Journal of chemical information and modeling, 2021).

Key:
SARS-CoV-2 WA1 strain = format: cell-based; details: Vero E6 cells
COVID-19 = details: 1063 patients, cited from earlier work

SMILES | activity against SARS-CoV-2 replication in words (SARS-CoV-2 WA1 strain) | mortality rate (COVID-19; placebo 11.9%) | recovery time shortened with respect to the placebo (COVID-19)
CC(C)(O)c1ccccc1CC[C@@H](SCC1(CC(=O)O)CC1)c1cccc(/C=C/c2ccc3ccc(Cl)cc3n2)c1 [Montelukast] | weakly active |  | 
CCC(CC)COC(=O)[C@H](C)N[P@](=O)(OC[C@H]1O[C@@](C#N)(c2ccc3c(N)ncnn23)[C@H](O)[C@@H]1O)Oc1ccccc1 [Remdesivir] |  | 7.1% | four
